Data set [1] relates to human periodontal ligament fibroblasts (HPDLF). The data set is described as follows: Periodontal ligament fibroblast migration into peptide scaffolds (confocal microscopy). It counts as cell-based. As to conditions: for fibroblast adhesion, proliferation and 3-D migration into scaffold: reconstructed confocal images. The procedure:
(§1) 1% RADA16 solution was obtained as PuraMatrix (3DM Inc./BD Bioscience). VEVK9, VEVK12 and the functionalized peptides were obtained from CPC Scientific (San Jose, Calif.) and dissolved in water at final concentration of 1% […]. The functionalized peptide solutions were then mixed with 1% RADA16, VEVK9 or VEVK12 solution at a ratio of 1:1. Each peptide solution was then loaded in the cell culture plate insert (BD Bioscience, Bedford, Mass.). The medium described below was added to induce hydrogel formation.
(§2) Primary isolated human periodontal ligament fibroblasts were commercially obtained from Lonza Inc. (HPDLF, Walkersville, Md.) and routinely grown in the culture medium (SCGM, Walkersville, Md.) on regular cell culture flask. The cells were plated at 2×10^4 cells on the gel in the inserts. The culture medium was changed every three days. Additional growth factors were not used.
(§3) Following the experiments, the cells on the gel were fixed with 4% paraformaldehyde for 15 min and permeabilized with 0.1% Triton X-100 for 5 min at room temperature. Fluorescent Rhodamin phalloidin and SYTOX® Green (Molecular Probes, Eugene, Oreg.) were used for labeling F-actin and nuclei, respectively. Images were taken using a fluorescence microscope (Axiovert 25, ZEISS) or laser confocal scanning microscope (Olympus FV300).
The functionalized peptide was obtained from CPC Scientific (San Jose, Calif.) and dissolved in water at final concentration of 1% […] as well. The functionalized peptide solutions were then mix with 1% VEVK9 or VEVK12 solution. The each peptide solution was loaded in the cell culture plate insert (BD Bioscience, Bedford, Mass.). The medium described below was added to induce hydrogel formation.

For data set [2] the test system is unchanged. The data set is described as follows: Periodontal ligament fibroblast attachment and proliferation on peptide scaffolds. Format: cell-based. Conditions: periodontal ligament fibroblasts cultured for three weeks. The protocol:
as §1, §2, §3

Another data set concerns the target T1, MMP-2 (Homo sapiens, UniProt P08253).
T1 sequence (P08253 110-660): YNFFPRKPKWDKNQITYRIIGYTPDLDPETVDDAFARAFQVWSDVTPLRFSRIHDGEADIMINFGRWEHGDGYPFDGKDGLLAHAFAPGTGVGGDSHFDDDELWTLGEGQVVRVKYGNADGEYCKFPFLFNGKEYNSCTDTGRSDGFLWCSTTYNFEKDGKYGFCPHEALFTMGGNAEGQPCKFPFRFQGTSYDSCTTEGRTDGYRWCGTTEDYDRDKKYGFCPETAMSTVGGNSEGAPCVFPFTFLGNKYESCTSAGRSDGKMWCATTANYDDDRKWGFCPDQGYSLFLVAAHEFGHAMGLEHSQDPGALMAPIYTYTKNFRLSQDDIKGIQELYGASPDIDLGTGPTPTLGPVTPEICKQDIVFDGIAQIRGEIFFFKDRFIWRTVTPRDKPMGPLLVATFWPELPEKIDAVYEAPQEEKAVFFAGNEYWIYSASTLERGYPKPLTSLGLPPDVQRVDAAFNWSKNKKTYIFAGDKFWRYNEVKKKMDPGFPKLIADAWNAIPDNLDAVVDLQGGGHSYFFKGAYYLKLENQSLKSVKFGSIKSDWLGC
As to conditions: reference 19b; cited from earlier work.

Data set [3] is described as follows: Tapping mode AFM analysis of nanofiber formation. As to conditions: aqueous solutions. It counts as physicochemical. An excerpt:
VEVK9 and VEVK12 are simple repeating units of amino acids VEVK (Valine-Glutamate-Valine-Lysine) which self-assemble into a nanofiber structure. The self-assembling peptide VEVK9 was functionalized either with RGD, laminin cell adhesion motifs or an MMP cleavable motif in order to mimic extracellular matrix to enhance cell maintenance and function in cell cultures. The functionalized peptides vPRG, vYIG and vIKV were synthesized with the VEVK9 sequence plus an additional motif added to the C-terminus using solid phase synthesis. One motif contains two repetitions of the RGD sequence (PRGDSGYRGDS (SEQ ID NO: 15)), and the others are cell adhesion motifs of laminin (YIGSR (SEQ ID NO: 5), IKVAV (SEQ ID NO: 6)). Glycine residues were used between the self-assembling motif VEVKVEVKV (SEQ ID NO: 2) and the functional motif as a spaced linker to keep the flexibility of the functional peptides. The MMP-2 cleavable motif (PVGLIG (SEQ ID NO: 11)) was inserted between two VEVK units. In comparison to RADA16-I and its functionalized peptides, these peptides are short sequences, maximum 20 amino acids (in vPRG), and seem to be cost-effective. The peptides were solubilized in water at a concentration of 10 mg/ml (1%, w/v). The peptides readily undergo self-assembly to form soft hydrogels. Mixing with self-assembling peptide VEVK9 or VEVK12 facilitated self-assembly and gelation. […]

Data set [4] deals with Human gingival fibroblasts (HGF-1). Kind of data set: Gingival fibroblast attachment and migration on peptide scaffolds (selective cell reproduction). It counts as cell-based. As to conditions: Example 2 comparison study, HGF-1 (FIG. 6). The procedure:
We tested the selective cell reproduction property of the functional scaffolds, using two periodontal cells, periodontal ligament fibroblasts and gingival fibroblasts.
Human gingival fibroblasts were commercially obtained from ATCC (HGF-1) and routinely grown in the culture medium (DMEM+10% FBS) on regular cell culture flask. The cells were plated at 2×10^4 cells on the gel in the inserts. The culture medium was changed every three days.

For data set [5], the system named is human periodontal ligament fibroblasts (HPDLF). Kind of data set: Fluorescent immunostaining of type I and type III collagen production on peptide scaffolds. Conditions: six weeks cell culture, compared to RADA16 (FIG. 5). It counts as cell-based. The procedure:
as §2
After the cell fixation, the primary antibody for type I collagen (5% Anti-collagen type I, Millpore, Mass.) was added and incubated at 37° for 40 min, then washing six times with PBS with 1% BSA. The second antibody (0.5% Alexa fluor 488 goat anti-rabbit IgG, Invitrogen) was added and incubated at 37° for another 40 min, then washing as well. After that, the primary antibody for type III collagen (0.5% Anti-collagen type III, Millpore, Mass.) was added and incubated at 37° for 40 min, then washing. Finally, the second antibody (0.5% Alexa fluor 594 goat ant-mouse IgG, Invitrogen) was added and incubated at 37° for another 40 min. Nonspecific staining as a control was performed by omitting primary antibodies.

As for Ac-VEVKVEVKVGPRGDSGYRGDSGCONH2 [vPRG], in data set [1], the “fibroblast adhesion, proliferation and 3-D migration into scaffold” value is “significant increases in fibroblast proliferation and migration”. Besides, in data set [2], the “cell attachment and morphology” value is “good attachment and extension”.

Regarding “(RADA)3PVGLIG (RADA)3 (RADARADARADAPVGLIGRADARA)”, the “degradability by MMP-2” value with MMP-2 is recorded as “degradable by MMP-2”.

As to “Ac-VEVKVEVKVEVK-CONH2 (Ac-VEVKVEVKVEVK-NH2) [VEVK12, 1% peptide F solution]”, the formation of nanofibers result in data set [3] is listed as “formed nanofibers”. In addition, the “cell attachment and morphology” value in data set [2] is “sparse and have a rounded morphology”.

Ac-VEVKVEVKVGYIGSRCONH2 [vYIG]: in data set [1], the “fibroblast adhesion, proliferation and 3-D migration into scaffold” value is on record as “migrate into them in the same manner”. Besides, in data set [2], the “cell attachment and morphology” value was “good attachment and extension”.

Turning to Ac-VEVKGPVGLIGVEVKCONH2 [vPVG], the “fibroblast adhesion, proliferation and 3-D migration into scaffold” value in data set [1] was “significant increases in fibroblast proliferation and migration”.

For Ac-VEVKVEVKVGIKVAVCONH2 [vIKV], in data set [1], the “fibroblast adhesion, proliferation and 3-D migration into scaffold” value is on record as “migrate into them in the same manner”. In addition, the “cell attachment and morphology” value in data set [2] is “good attachment and extension”.

With “Ac-VEVKVEVKV-CONH2 (Ac-VEVKVEVKV-NH2) [VEVK9, 1% peptide E solution]”, the “fibroblast adhesion, proliferation and 3-D migration into scaffold” value in data set [1] is on record as “Only a few fibroblasts adhered”. For the same substance, the “cell attachment and morphology” value in data set [2] was “sparse and have a rounded morphology”.

For “Ac(RADA)4CONH2 (Ac-RADARADARADARADA-NH2) [RADA16, 1% peptide A solution; self assembling motif, obtained as PuraMatrix]”, the “gingival fibroblast attachment and migration” value in data set [4] is listed as “did not show migration in both fibroblasts”. Also, in data set [1] (Example 2 comparison study (FIG. 6)), the “periodontal ligament fibroblast attachment and migration” value is given as “did not show migration in both fibroblasts”. Besides, in data set [5], the “type I and type III collagens production” value was “not to produce collagens”.

The values are drawn from patent publication US9481713B2, “Self-assembling peptides incorporating modifications and methods of use thereof” (Massachusetts Institute of Technology, priority 2010, dated 2016).
